Laboratory results from article PMC4430089 (Journal of peptide science : an official publication of the …, 2014).

What was measured:
[1] = Circular dichroism: conformation and thermal unfolding; format: physicochemical; conditions: for FF @ 37°C (folded fraction): calculated from CD molar ellipticity at 224 nm: FF=CD37-CD80/CDfolded-CD80
[2] = system: 3T3 Swiss mice fibroblasts; test: Cellular uptake by confocal microscopy; format: cell-based; conditions: 15 μM peptide in PBS, 30 min; for Preferential accumulation site within the cell: confocal microscopy without DAPI; for Cellular uptake (FITC fluorescence from cells): confocal microscopy, 37°C
[3] = system: Jurkat E6 human leukemia cells; test: Cellular uptake by flow cytometry; format: cell-based; conditions: 15μM peptide, 10 min
[4] = system: 3T3 Swiss mice fibroblasts; test: Cell viability, Trypan Blue assay; conditions: 15 μM peptide in PBS, 30 min exposure, three repeats on two plates

| Substance | FF @ 37°C (folded fraction) [1] | Tm lower than Tm of V1 ([1]; difference of CD Tm values) [°C] | Preferential accumulation site within the cell [2] | Cellular uptake (FITC fluorescence from cells) [2] | Number of cells that uptake the peptide [3] [%] | Cytotoxicity compared to control (cell viability) [4] | Fluorescence intensity of cells lower than cells incubated with V2 [3] |
| --- | --- | --- | --- | --- | --- | --- | --- |
| FITC-AβGG-POGPOGPOGPOGPOGPOGPOGPOG-RRRRRR [Peptide V2] | 0.82 | 3.2 | stronger preference to accumulate within the nuclear bodies | effectively penetrate the cellular membrane | 72.8 | no significant (p>0.05) toxicity |  |
| FITC-AβGG-POGPOGPOGPOGPOGPOGPOGPOG-RRGRRG [Peptide V1] | 0.90 |  | accumulates to larger extend in cytoplasm than V2, with only small amount reaching the nucleus | effectively penetrate the cellular membrane | 71.2 | no significant (p>0.05) toxicity | about 20% |
